As a reminder, the MIC is the least concentration at which growth counts as inhibited. As a reminder, the IC50 is the concentration needed to halve the response being measured.

Molecules are shown by their SMILES. ≈ marks a conversion by molar mass, not a printed value. Calls of active or inactive are those of the source. No cut-off for these calls is given here.

The source of these data is ChEMBL document CHEMBL5257115, “Synthesis of novel ciprofloxacin-avibactam conjugates for the development of second-generation non-β-lactam-β-lactamase inhibitors” (Bioorg Med Chem Lett, 2023).

The subject of data set [1] is Klebsiella pneumoniae. Nature of the data set: Synergistic antibacterial activity against multidrug resistant Klebsiella pneumoniae ATCC 2146 assessed as bacterial growth inhibition in presence of ceftazidime. It counts as functional, organism-based.
Data set [2] has as its system Escherichia coli. Nature of the data set: Synergistic antibacterial activity against multidrug resistant Escherichia coli ATCC 2774 assessed as bacterial growth inhibition in presence of ceftazidime. It counts as functional, organism-based.
Data set [3] relates to Klebsiella pneumoniae. Nature of the data set: Antibacterial activity against multidrug resistant Klebsiella pneumoniae ATCC 2146 assessed as bacterial growth inhibition. The class given is functional.
The subject of data set [4] is Escherichia coli. Nature of the data set: Antibacterial activity against multidrug resistant Escherichia coli ATCC 2774 assessed as bacterial growth inhibition. It counts as functional.
Data set [5] relates to Klebsiella pneumoniae. The data set can be described thus: Synergistic antibacterial activity against multidrug resistant Klebsiella pneumoniae ATCC 2782 assessed as bacterial growth inhibition in presence of ceftazidime. It counts as functional, organism-based.
Data set [6] deals with Escherichia coli. The data set can be described thus: Antibacterial activity against multidrug resistant Escherichia coli ATCC 25922 assessed as bacterial growth inhibition. It counts as functional.
Data set [7] deals with Klebsiella pneumoniae. The data set can be described thus: Antibacterial activity against multidrug resistant Klebsiella pneumoniae ATCC 2782 assessed as bacterial growth inhibition. It counts as functional.
For data set [8], the system named is Escherichia coli. Nature of the data set: Synergistic antibacterial activity against multidrug resistant Escherichia coli ATCC 25922 assessed as bacterial growth inhibition in presence of ceftazidime. The class given is functional, organism-based.
The target in data set [9] is T1, Metallo-beta-lactamase type 2 (Bacillus cereus, UniProt P14488).
T1 sequence (P14488 whole entry): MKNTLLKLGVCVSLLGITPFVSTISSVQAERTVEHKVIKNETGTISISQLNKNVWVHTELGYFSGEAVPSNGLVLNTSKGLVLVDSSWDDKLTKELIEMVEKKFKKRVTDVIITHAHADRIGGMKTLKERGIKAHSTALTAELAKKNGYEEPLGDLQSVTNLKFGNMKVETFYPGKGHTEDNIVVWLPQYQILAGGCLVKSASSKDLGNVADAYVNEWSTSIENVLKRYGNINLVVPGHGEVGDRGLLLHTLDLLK
Nature of the data set: Inhibition of Bacillus cereus beta-lactamase II.

For data set [10], the system named is Staphylococcus aureus. Nature of the data set: Antibacterial activity against multidrug resistant Staphylococcus aureus ATCC 25923 assessed as bacterial growth inhibition. It counts as functional.
The next data set has as its system Acinetobacter baumannii. The data set can be described thus: Antibacterial activity against multidrug resistant Acinetobacter baumannii ATCC 2803 assessed as bacterial growth inhibition. It counts as functional.
Data set [11] is described as follows: Hemolytic activity in human RBC assessed as hemolysis at 512 ug/ml. To be noted: red blood cells (RBC), at 512 µg/mL, read-out: Activity. It counts as toxicity, cell-based, Erythrocyte.
In data set [12] the test system is Staphylococcus aureus. Nature of the data set: Antibacterial activity against multidrug resistant Staphylococcus aureus ATCC 43300 assessed as bacterial growth inhibition. It counts as functional.

Take `NC(=O)[C@@H]1CC[C@@H]2CN1C(=O)N2OS(=O)(=O)O` [AVIBACTAM]: the outcome with Klebsiella pneumoniae [1], in the data set with Escherichia coli [2], with Klebsiella pneumoniae [5] and in the data set with Escherichia coli [8] was Active. Further, the MIC was 8 µg/mL (≈ 30.2 µM) in the data set on Klebsiella pneumoniae [3]; 8 µg/mL (≈ 30.2 µM) with Escherichia coli [4]; 8 µg/mL (≈ 30.2 µM) in the data set with Escherichia coli [6]; 32 µg/mL (≈ 121 µM) in the data set with Klebsiella pneumoniae [7]; 256 µg/mL (≈ 965 µM) in the data set on Staphylococcus aureus [10]; greater than 128 µg/mL with Acinetobacter baumannii. Further, the minimal inhibitory concentration (MIC) with Staphylococcus aureus [12] was greater than 128 µg/mL. Moreover, 141 nM corresponded to half-maximal inhibition in data set [9] (IC50). Further, the hemolysis at 512 ug/ml in [11] is 3.87%.

Turning to `C[C@H](NC(=O)[C@@H]1CC[C@@H]2CN1C(=O)N2OS(=O)(=O)O)C(=O)NNC(=O)c1cn(C2CC2)c2cc(N3CCNCC3)c(F)cc2c1=O`, the minimum inhibitory concentration (MIC) in the data set with Klebsiella pneumoniae [3] was greater than 128 µg/mL; in the data set on Escherichia coli [4], greater than 128 µg/mL; in the data set with Escherichia coli [6], 1 µg/mL (≈ 1.5 µM); in the data set with Klebsiella pneumoniae [7] it was greater than 128 µg/mL; in the data set with Staphylococcus aureus [10] it was 16 µg/mL (≈ 24.1 µM); in the data set with Acinetobacter baumannii, greater than 128 µg/mL. The minimal inhibitory concentration (MIC) in the data set with Staphylococcus aureus [12] was found to be 32 µg/mL (≈ 48.1 µM).

`O=C(CNC(=O)[C@@H]1CC[C@@H]2CN1C(=O)N2OS(=O)(=O)O)NNC(=O)c1cn(C2CC2)c2cc(N3CCNCC3)c(F)cc2c1=O`: the result with Klebsiella pneumoniae [1], with Escherichia coli [2], with Klebsiella pneumoniae [5] and in the data set with Escherichia coli [8] was Active. Besides, the MIC in the data set on Klebsiella pneumoniae [3] is greater than 128 µg/mL; with Escherichia coli [4], greater than 128 µg/mL; with Escherichia coli [6], 8 µg/mL (≈ 12.3 µM); in the data set on Klebsiella pneumoniae [7] it was greater than 128 µg/mL; in the data set on Staphylococcus aureus [10] it was greater than 256 µg/mL; in the data set on Acinetobacter baumannii, greater than 128 µg/mL. In the data set on Staphylococcus aureus [12], the MIC is greater than 128 µg/mL. Besides, 226 nM corresponded to half-maximal inhibition in data set [9] (IC50). Further, the hemolysis at 512 ug/ml in data set [11] came to 5.74%.

For `O=C(O)c1cn(C2CC2)c2cc(N3CCNCC3)c(F)cc2c1=O` [CIPROFLOXACIN], the minimal inhibitory concentration (MIC) in the data set with Klebsiella pneumoniae [3] was greater than 128 µg/mL; with Escherichia coli [4] it was 128 µg/mL (≈ 386 µM); with Klebsiella pneumoniae [7], greater than 128 µg/mL; in the data set on Acinetobacter baumannii, greater than 128 µg/mL; in the data set on Staphylococcus aureus [12] it was 0.5 µg/mL (≈ 1.51 µM).

With `COc1ccc(C[C@H](NC(=O)[C@@H]2CC[C@@H]3CN2C(=O)N3OS(=O)(=O)O)C(=O)NNC(=O)c2cn(C3CC3)c3cc(N4CCNCC4)c(F)cc3c2=O)cc1OC`, the MIC is greater than 64 µg/mL in the data set on Klebsiella pneumoniae [3]; greater than 64 µg/mL in the data set with Escherichia coli [4]; 32 µg/mL (≈ 40 µM) in the data set on Escherichia coli [6]; greater than 64 µg/mL with Klebsiella pneumoniae [7]; greater than 64 µg/mL in the data set with Staphylococcus aureus [10]; greater than 64 µg/mL in the data set on Acinetobacter baumannii. Further, in the data set with Staphylococcus aureus [12], the MIC is greater than 64 µg/mL.

In the case of `O=C(CCCNC(=O)[C@@H]1CC[C@@H]2CN1C(=O)N2OS(=O)(=O)O)NNC(=O)c1cn(C2CC2)c2cc(N3CCNCC3)c(F)cc2c1=O`, the MIC in the data set with Klebsiella pneumoniae [3] is greater than 64 µg/mL; in the data set with Escherichia coli [4] it was greater than 32 µg/mL; in the data set on Escherichia coli [6], 8 µg/mL (≈ 11.8 µM); in the data set with Klebsiella pneumoniae [7], greater than 32 µg/mL; in the data set with Staphylococcus aureus [10], greater than 64 µg/mL; with Acinetobacter baumannii, greater than 64 µg/mL. For the same molecule, the MIC in the data set on Staphylococcus aureus [12] was greater than 64 µg/mL.

For `CC(C)(C)OC(=O)N1CCN(c2cc3c(cc2F)c(=O)c(C(=O)NNC(=O)[C@@H]2CC[C@@H]4CN2C(=O)N4OS(=O)(=O)[O-])cn3C2CC2)CC1.CCCC[N+](CCCC)(CCCC)CCCC`, the MIC in the data set with Klebsiella pneumoniae [3] is greater than 128 µg/mL; in the data set with Escherichia coli [4], greater than 128 µg/mL; in the data set with Escherichia coli [6] it was greater than 256 µg/mL; in the data set on Klebsiella pneumoniae [7], greater than 128 µg/mL; in the data set on Staphylococcus aureus [10], 8 µg/mL; in the data set on Acinetobacter baumannii, greater than 128 µg/mL. Also, the MIC with Staphylococcus aureus [12] is greater than 128 µg/mL.

Take `O=C(NNC(=O)[C@@H]1CC[C@@H]2CN1C(=O)N2OS(=O)(=O)O)c1cn(C2CC2)c2cc(N3CCNCC3)c(F)cc2c1=O`: the outcome in the data set with Klebsiella pneumoniae [1], in the data set on Escherichia coli [2], in the data set on Klebsiella pneumoniae [5] and in the data set with Escherichia coli [8] was Active. The MIC with Klebsiella pneumoniae [3] was greater than 128 µg/mL; in the data set with Escherichia coli [4], greater than 128 µg/mL; with Escherichia coli [6], 16 µg/mL (≈ 27 µM); in the data set with Klebsiella pneumoniae [7], greater than 128 µg/mL; in the data set on Staphylococcus aureus [10] it was 8 µg/mL (≈ 13.5 µM); in the data set with Acinetobacter baumannii, greater than 128 µg/mL. Besides, the MIC in the data set with Staphylococcus aureus [12] was 128 µg/mL (≈ 216 µM). For the same molecule, 1.69 nM corresponded to half-maximal inhibition in data set [9] (IC50). Besides, in data set [11], the hemolysis at 512 ug/ml is 4.27%.

In the case of `CC(C)[C@H](NC(=O)[C@@H]1CC[C@@H]2CN1C(=O)N2OS(=O)(=O)O)C(=O)NNC(=O)c1cn(C2CC2)c2cc(N3CCNCC3)c(F)cc2c1=O`, the result in the data set on Klebsiella pneumoniae [1], in the data set with Escherichia coli [2], in the data set on Klebsiella pneumoniae [5] and with Escherichia coli [8] was Active. In addition, the MIC is greater than 128 µg/mL in the data set on Klebsiella pneumoniae [3]; greater than 128 µg/mL with Escherichia coli [4]; 16 µg/mL (≈ 23.1 µM) in the data set with Escherichia coli [6]; greater than 128 µg/mL in the data set on Klebsiella pneumoniae [7]; 128 µg/mL (≈ 185 µM) in the data set on Staphylococcus aureus [10]; greater than 128 µg/mL in the data set on Acinetobacter baumannii. In addition, the MIC in the data set on Staphylococcus aureus [12] is greater than 128 µg/mL. The molecule also had an IC50 in data set [9] of 57.4 nM. For the same molecule, in data set [11], the hemolysis at 512 ug/ml stood at 5.1%.

For the molecule `O=C(CCCCCNC(=O)[C@@H]1CC[C@@H]2CN1C(=O)N2OS(=O)(=O)O)NNC(=O)c1cn(C2CC2)c2cc(N3CCNCC3)c(F)cc2c1=O`, the minimal inhibitory concentration (MIC) in the data set on Klebsiella pneumoniae [3] is greater than 64 µg/mL; in the data set with Escherichia coli [4], greater than 32 µg/mL; in the data set with Escherichia coli [6], 4 µg/mL (≈ 5.66 µM); with Klebsiella pneumoniae [7] it was greater than 32 µg/mL; in the data set with Staphylococcus aureus [10], greater than 64 µg/mL; in the data set on Acinetobacter baumannii, greater than 64 µg/mL. Besides, the minimum inhibitory concentration (MIC) in the data set with Staphylococcus aureus [12] is greater than 64 µg/mL.

In the case of `CC[C@H](C)C(NC(=O)[C@@H]1CC[C@@H]2CN1C(=O)N2OS(=O)(=O)O)C(=O)NNC(=O)c1cn(C2CC2)c2cc(N3CCNCC3)c(F)cc2c1=O` (stereo partly drawn), the MIC is greater than 128 µg/mL in the data set with Klebsiella pneumoniae [3]; greater than 128 µg/mL with Escherichia coli [4]; 32 µg/mL (≈ 45.3 µM) in the data set on Escherichia coli [6]; greater than 128 µg/mL in the data set on Klebsiella pneumoniae [7]; greater than 256 µg/mL in the data set on Staphylococcus aureus [10]; greater than 128 µg/mL in the data set on Acinetobacter baumannii. Also, the MIC in the data set on Staphylococcus aureus [12] was greater than 128 µg/mL.

For the molecule `O=C(NNC(=O)[C@H](Cc1ccccc1)NC(=O)[C@@H]1CC[C@@H]2CN1C(=O)N2OS(=O)(=O)O)c1cn(C2CC2)c2cc(N3CCNCC3)c(F)cc2c1=O`, the MIC was greater than 128 µg/mL in the data set on Klebsiella pneumoniae [3]; greater than 128 µg/mL in the data set with Escherichia coli [4]; 16 µg/mL (≈ 21.6 µM) with Escherichia coli [6]; greater than 128 µg/mL with Klebsiella pneumoniae [7]; 8 µg/mL (≈ 10.8 µM) in the data set on Staphylococcus aureus [10]; greater than 128 µg/mL with Acinetobacter baumannii. The MIC in the data set with Staphylococcus aureus [12] was greater than 128 µg/mL.

`O=C(NNC(=O)[C@@H]1CCCN1C(=O)[C@@H]1CC[C@@H]2CN1C(=O)N2OS(=O)(=O)O)c1cn(C2CC2)c2cc(N3CCNCC3)c(F)cc2c1=O`: the MIC with Klebsiella pneumoniae [3] is greater than 128 µg/mL; with Escherichia coli [4] it was greater than 128 µg/mL; with Escherichia coli [6] it was 8 µg/mL (≈ 11.6 µM); in the data set on Klebsiella pneumoniae [7], greater than 128 µg/mL; in the data set on Staphylococcus aureus [10], 128 µg/mL (≈ 185 µM); with Acinetobacter baumannii, greater than 128 µg/mL. Moreover, the MIC in the data set on Staphylococcus aureus [12] was greater than 128 µg/mL.
